“Also recorded” adds a separate entry of the source.
Test system: adult subjects with Major Depressive Disorder
Test: Phase 3 open-label 1-year study: safety and tolerability (TEAEs, SAEs, C-SSRS)
Assay type: in vivo, human
Settings: for Subjects reporting TEAEs leading to dose reduction: Low dose cohort; for Subjects with Treatment Cycle Period TEAE / Subjects with Treatment Period TEAE: Study Period 1 only
Method: Primary Objective: To determine the safety and tolerability of initial treatment and re-treatment(s) with Compound (1) in adults with Major Depressive Disorder (MDD) currently experiencing a major depressive episode (MDE) over a 1-year period.
Study Population: Subjects were 18-75 years old, diagnosed with major depressive disorder (MDD) with a MADRS total score of ≥28 and a HAM-D total score of ≥20 at Screening and Day 1 (prior to dosing).
Treatment Groups: The 30 mg and 50 mg dose groups were separated by time of enrollment. The study is comprised of two cohorts: one with Compound (1) 30 mg as a starting dose (30 mg Cohort: n=725), an initial cohort with Compound (1) 50 mg as a starting dose (50 mg Cohort: n=199). A patient receiving Compound (1) 30 mg could be dose reduced to 20 mg and patients receiving Compound (1) 50 mg could be dose reduced to 40 mg (based on tolerability). In all cohorts, Compound (1) is self-administered by patients as an oral therapy once nightly with food for 14 days.
The study has a Screening Period of up to 28 days, a 14-day Treatment Period, and up to 1 year of Follow-up. FIG. 1 is an overview of the study.
Antidepressants were permitted provided subjects were on a stable dose for at least 60 days prior to Day 1 and agreed to continue on the stable dose through the follow-up period (Day 42). Initiation of new antidepressants or any other medications that may potentially have an impact on efficacy or safety endpoints were not allowed between screening and completion of the Day 42 assessments.
Eligible subjects were given Compound (1)—to be taken at home in the evening with meal.
Subjects who continued in the Observation Period were monitored remotely via PHQ-9 assessment every two weeks. If PHQ-9 score was >=10 at any assessment, PHQ-9 assessment was switch to every week until the score came down below 10 or the subject was dosed with Compound (1) in a subsequent cycle, whichever was earlier. A subject was to come back to the site for HAM-D assessment within a week of PHQ-9 score >=10; if the HAM-D total score >=20 and at least 56 days had elapsed since the last dose of Compound (1), another dosing cycle of Compound (1) were to start. If any of these criteria were not met, the subject couldn't be treated with Compound (1) at that time. Without the trigger of PHQ-9>=10 the subject was to have a clinic visit every 8 weeks. A subject could have at most 5 cycles of treatment within a year. FIG. 2 is a depiction of the eligibility criteria of the study.
Dose reduction from 30 mg to 20 mg or 50 mg to 40 mg was allowed in any treatment cycle if the safety and/or tolerability of the subject so warrants. […] Subjects who dose reduced from 30 mg to 20 mg still started with 30 mg in the next treatment cycle.
The cohorts pertaining to the different doses that the subjects received were defined as following: • 50 mg cohort: This cohort includes subjects who have initiated treatment with 50 mg and received re-treatment with 50 mg only. • 30 mg cohort: This cohort includes subjects who have initiated treatment with 30 mg regardless of the dose they have received in re-treatments. • Low dose cohort: This cohort includes subjects who have initiated treatment with 30 mg and received re-treatment with 30 mg only. • Dose switch cohort: This cohort includes subjects who have received initial treatment with 30 mg and at least one subsequent re-treatment with 50 mg. • Study Period X: starts on the date of the first dose of Compound (1) in cycle X and goes up to one day prior to the first dose of the next cycle. […]

[1] = Low Dose Cohort, ATD use at period-specific baseline No, Study Period 3
[2] = Low Dose Cohort, ATD use at period-specific baseline No, Study Period 4
[3] = Low Dose Cohort, ATD use at period-specific baseline No, Study Period 5
[4] = Low Dose Cohort, ATD use at period-specific baseline Yes, Study Period 1
[5] = Low Dose Cohort, ATD use at period-specific baseline Yes, Study Period 2
[6] = Low Dose Cohort, ATD use at period-specific baseline Yes, Study Period 3
[7] = Low Dose Cohort, ATD use at period-specific baseline Yes, Study Period 4
[8] = Low Dose Cohort, ATD use at period-specific baseline Yes, Study Period 5
[9] = overall study population (Example 5)

## C[C@@]1(O)CC[C@H]2[C@H](CC[C@@H]3[C@@H]2CC[C@]2(C)[C@@H](C(=O)Cn4cc(C#N)cn4)CC[C@@H]32)C1 [Compound (1), 1-(2-((3R,5R,8R,9R,10S,13S,14S,17S)-3-hydroxy-3,13-dimethylhexadecahydro-1H-cyclopenta[a]phenanthren-17-yl)-2-oxoethyl)-1H-pyrazole-4-carbonitrile]
Low Dose Cohort, ATD use at period-specific baseline No, Study Period 2
  Subjects with at least one Treatment period AE: 51 (43.2%)
[1]
  Subjects with a TEAE leading to study drug discontinuation: 0%
  Subjects with a Treatment cycle period AE leading to study withdrawal: 1 (2.4%)
  Subjects with at least one TEAE: 21 (51.2%)
  Subjects with at least one Treatment cycle period TEAE: 14 (34.1%)
  Subjects with at least one Treatment cycle period serious TEAE: 1 (2.4%)
  Subjects with at least one Treatment cycle period severe TEAE: 2 (4.9%)
  Subjects with at least one Treatment period AE: 12 (29.3%)
[2]
  Subjects with a TEAE leading to study drug discontinuation: 0%
  Subjects with a Treatment cycle period AE leading to study withdrawal: 0%
  Subjects with at least one TEAE: 8 (33.3%)
  Subjects with at least one Treatment cycle period TEAE: 6 (25.0%)
  Subjects with at least one Treatment cycle period serious TEAE: 0%
  Subjects with at least one Treatment cycle period severe TEAE: 0%
  Subjects with at least one Treatment period AE: 5 (20.8%)
[3]
  Subjects with a TEAE leading to study drug discontinuation: 0%
  Subjects with a Treatment cycle period AE leading to study withdrawal: 0%
  Subjects with at least one TEAE: 3 (33.3%)
  Subjects with at least one Treatment cycle period TEAE: 2 (22.2%)
  Subjects with at least one Treatment cycle period serious TEAE: 0%
  Subjects with at least one Treatment cycle period severe TEAE: 0%
  Subjects with at least one Treatment period AE: 2 (22.2%)
[4]
  Subjects with a TEAE leading to study drug discontinuation: (1.5%)
  Subjects with a Treatment cycle period AE leading to study withdrawal: (1.9%)
  Subjects with at least one TEAE: (57.9%)
  Subjects with at least one Treatment cycle period TEAE: (50.4%)
  Subjects with at least one Treatment cycle period serious TEAE: (0.4%)
  Subjects with at least one Treatment cycle period severe TEAE: (2.3%)
  Subjects with at least one Treatment period AE: (47.4%)
[5]
  Subjects with a TEAE leading to study drug discontinuation: 1 (1.1%)
  Subjects with a Treatment cycle period AE leading to study withdrawal: 1 (1.1%)
  Subjects with at least one TEAE: 48 (54.5%)
  Subjects with at least one Treatment cycle period TEAE: 36 (40.9%)
  Subjects with at least one Treatment cycle period serious TEAE: 1 (1.1%)
  Subjects with at least one Treatment cycle period severe TEAE: 2 (2.3%)
  Subjects with at least one Treatment period AE: 29 (33.0%)
[6]
  Subjects with a TEAE leading to study drug discontinuation: 0%
  Subjects with a Treatment cycle period AE leading to study withdrawal: 0%
  Subjects with at least one TEAE: 19 (42.2%)
  Subjects with at least one Treatment cycle period TEAE: 14 (31.1%)
  Subjects with at least one Treatment cycle period serious TEAE: 0%
  Subjects with at least one Treatment cycle period severe TEAE: 0%
  Subjects with at least one Treatment period AE: 12 (26.7%)
[7]
  Subjects with a TEAE leading to study drug discontinuation: 0%
  Subjects with a Treatment cycle period AE leading to study withdrawal: 0%
  Subjects with at least one TEAE: 7 (36.8%)
  Subjects with at least one Treatment cycle period TEAE: 3 (15.8%)
  Subjects with at least one Treatment cycle period serious TEAE: 0%
  Subjects with at least one Treatment cycle period severe TEAE: 0%
  Subjects with at least one Treatment period AE: 3 (15.8%)
[8]
  Subjects with a TEAE leading to study drug discontinuation: 0%
  Subjects with a Treatment cycle period AE leading to study withdrawal: 0%
  Subjects with at least one TEAE: 6 (54.5%)
  Subjects with at least one Treatment cycle period TEAE: 4 (36.4%)
  Subjects with at least one Treatment cycle period serious TEAE: 0%
  Subjects with at least one Treatment cycle period severe TEAE: 0%
  Subjects with at least one Treatment period AE: 4 (36.4%)
Low Dose cohort, as printed in b423 (451/677)
  Proportion of subjects reporting TEAEs: 66.6%
Low dose cohort (30 mg only), treatment cycle 1
  SAEs considered probably or possibly related to the study drug: none
Cycle 1
  Subjects reporting TEAEs leading to dose reduction: 3.4%
Cycle 2
  Subjects reporting TEAEs leading to dose reduction: 4.4%
Cycle 3
  Subjects reporting TEAEs leading to dose reduction: 2.3%
Cycle 4 (0/43)
  Subjects reporting TEAEs leading to dose reduction: 0%
Cycle 5
  Subjects reporting TEAEs leading to dose reduction: 10%
Overall (32/645)
  Subjects reporting TEAEs leading to dose reduction: 5.0%
Overall (N = 924)
  Subjects with at least one TEAE: 618 (66.9%)
  Subjects with at least one TEAE leading to study drug discontinuation: 32 (3.5%)
  Subjects with at least one TEAE leading to study withdrawal: 46 (5.0%)
  Subjects with at least one serious TEAE: 27 (2.9%)
  Subjects with at least one severe TEAE: 60 (6.5%)
  Subjects with Treatment Cycle Period TEAE: 485 (52.5%)
  Subjects with Treatment Period TEAE: 456 (49.4%)
30 mg Cohort (N = 725)
  Subjects with Treatment Cycle Period TEAE: 368 (50.8%)
  Subjects with Treatment Period TEAE: 348 (48.0%)
50 mg Cohort (N = 199)
  Subjects with Treatment Cycle Period TEAE: 117 (58.8%)
  Subjects with Treatment Period TEAE: 108 (54.3%)
Dose Switch Cohort (N = 80)
  Subjects with Treatment Cycle Period TEAE: 31 (38.8%)
  Subjects with Treatment Period TEAE: 28 (35.0%)
Low Dose Cohort (N = 645)
  Subjects with Treatment Cycle Period TEAE: 337 (52.2%)
  Subjects with Treatment Period TEAE: 320 (49.6%)
All dose cohorts
  Severity of the majority of TEAEs: mild to moderate; also recorded: mild or moderate
Any study period or dose cohort
  Suicidal ideation or suicidal behavior compared to baseline (C-SSRS): no signal for increased suicidal ideation or suicidal behavior
First course of Compound (1) 30 mg
  Tolerability: generally well-tolerated
In vivo
  Most common AEs that led to dose reduction: Somnolence, Dizziness, Sedation and Headache
[9]
  TEAE diarrhea: 6.3%
  TEAE dizziness: 9.1%
  TEAE dry mouth: 5.5%
  TEAE headache: 13.9%
  TEAE insomnia: 5.4%
  TEAE sedation: 8.7%
  TEAE somnolence: 12.8%
  TEAE upper respiratory infection: 6.3%
Subjects receiving Compound (1) 50 mg
  Overall safety observations with 50 mg versus safety findings with 30 mg: comparable
Treatment cycle 1, 50 mg cohort (5/199)
  Subjects reporting SAEs: 2.5%
Treatment cycle 1, Low Dose cohort (6/645)
  Subjects reporting SAEs: 0.9%

Reference: patent publication US20240245711A1, “A 19-NOR C3,3-DISUBSTITUTED C21-N-PYRAZOLYL STEROID FOR THE TREATMENT OF MAJOR DEPRESSIVE DISORDER” (Sage Therapeutics, Inc., priority 2021, published 2024)
